From patent US20100029552A1, “Peptide inhibitors of c-jun dimerization and uses thereof” (Phylogica Limited, priority 2004, published 2010)
Entries after “also recorded” stand apart in the source; their conditions may differ. Where no end group is shown, it is not given here. [ ]: non-standard residue; d: D form.

Legend:
[1] = system: Primary rat neuronal cells; test: Glutamate induced cell death of primary neurons, D and L amino acid synthetic peptides; format: cell-based; details: FIG. 21; for protection of neurons from glutamate induced cell death: 250 μM glutamate for 5 minutes; for protection offered by the D form relative to the L form of the peptide: same concentrations, glutamate induced cell death
Excerpt: D amino acid forms of peptides SP35 (designated D35) (SEQ ID NO: 132) and SP36 (designated D36) (SEQ ID NO: 136) comprising D amino acids other than glycine were produced synthetically, as were peptides SP35, SP36 and TIJIP comprising L-amino acids. The retro-inverted peptides further comprised a TAT protein targeting domain fused to the C-terminus of the inverted peptide moiety and separated therefrom by a single L-glycine residue in each case. The amino acid sequences of the retro-inverted peptide analogues of SEQ ID NOs: 132 and 136 are set forth in SEQ ID NOs: 181 and 182, respectively.
Primary rat neuronal cells were isolated and cultured using methods known in the art. Cells were then incubated in the presence or absence of a test peptide, a positive control peptide (Ti JIP) or a combination of known small-molecule glutamate inhibitors (MK801 and CNQX). Cells were incubated in the presence of 250 μM glutamate for 5 minutes to induce cell death representative of ischemia induced cell death.

[2] = system: Primary rat neuronal cells; test: Acute ischemia: anaerobic incubation of primary neurons (MTS assay); format: cell-based; details: anaerobic incubator for 35 minutes, peptide 15 mins pre-insult, MTS 24 hours later; FIG. 22
Description: Cells at the core of an ischemic event (e.g., a stroke) are subject to anaerobic conditions leading to severe energy depletion and glutamate release, which causes necrotic cell death. Such a condition is mimicked by incubating cell cultures in anaerobic conditions.
To determine the effect of peptides 35 (SEQ ID NO: 130) and 36 (SEQ ID NO: 134) comprising either D- or L-amino acids on an acute ischemic effect, primary rat neuronal cells were isolated and cultured. Synthetic peptides were added to cultures and the cells maintained in an anaerobic chamber for approximately 35 minutes. Cell survival was then measured.
Briefly, isolated rat neurons were treated with peptide for 15 mins pre-insult. After addition of peptide or control, Cells were washed in glucose free balanced salt solution containing deoxy glucose to prevent glycolysis. Cells were then incubated in anaerobic incubator for 35 minutes. Post insult, solution was removed, fresh media added to cells and MTS assayed for live cells 24 hours later.

c-Jun = target: T1, c-Jun (Homo sapiens, UniProt P05412); test: Co-immunoprecipitation of c-Jun with FLAG-tagged peptides from HEK293 cells; format: binding; details: anti-FLAG capture, anti-c-Jun detection, FIG. 16
T1 construct: expressed in transfected cells; host or cells: HEK293
T1 sequence (P05412 whole entry): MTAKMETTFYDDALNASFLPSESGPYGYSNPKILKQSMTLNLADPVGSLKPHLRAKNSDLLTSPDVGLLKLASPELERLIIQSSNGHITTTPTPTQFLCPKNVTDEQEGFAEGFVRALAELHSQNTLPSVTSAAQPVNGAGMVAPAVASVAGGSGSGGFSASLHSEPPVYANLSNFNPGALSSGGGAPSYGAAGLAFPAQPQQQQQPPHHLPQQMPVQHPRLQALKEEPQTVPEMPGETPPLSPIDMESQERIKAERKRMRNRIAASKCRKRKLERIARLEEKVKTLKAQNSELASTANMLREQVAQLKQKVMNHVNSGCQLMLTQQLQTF
Description: HEK293 cells were cultured in DMEM+10% FCS, 2 mM L-glutamine. On the day prior to transfection, cells were trypsinised and split into 6-well tissue culture plates so that they reached 80-90% confluency for transfection. Cells were co-transfected with pcDNA3-Jun (1.3 μg) and pcDNA3-peptide (2.6 μg) using Lipofectamine-2000 reagent (Life Technologies, U.S.A.) as per manufacturer's instructions. Forty-eight hours post-transfection, transfected cells were scraped from the plates, collected by centrifugation and proteins extracted in hypotonic lysis buffer (1OmM Tris, 1OmM NaCl, 2 mM EDTA, pH 7.5+protease inhibitors (Roche, U.S.A.)). Salt concentration was adjusted to 15OmM by addition of NaCl, debris pelleted and proteins in supernatant collected in fresh tubes.
A small aliquot (40 μl) of protein was set aside for western analysis. The remainder was incubated by rotation at 4° C. for two hours, with either anti-Flag conjugated agarose beads (Sigma-Aldrich, U.S.A.) anti-Flag antibody (Sigma-Aldrich), preconjugated to anti-mouse magnetic Dynabeads (Dynal Biotech, Norway) according to manufacturer's directions. Protein complexes bound to conjugated beads were collected by centrifugation or over a Dynal magnet, washed eight times for five minutes with NET-2 buffer (50 mM Tris-Cl pH7.5, 150 mM NaCl, 0.05% Nonidet P-40). […]

AP-I luciferase reporter = test: AP-1 luciferase reporter assay in K562-AP1 cells transfected with pcDNA3-peptide; format: cell-based; details: 48 hours after transfection, compared to control cells, p<0.05, FIG. 15
Description: The K562 cell line was stably-transfected with the AP-I luciferase reporter of the Mercury Profiling kit (Clontech, U.S.A.), and clonal cell line 26 established. In 6-well tissue culture plate format, K562-AP1 cells were transfected with either pcDNA3 control, pcDNA3-Jun or pcDNA3-peptide using Lipofectamine-2000 (Life Technologies), according to manufacturer's instructions. Transfections were incubated for 48 hours, cells collected and protein lysates extracted for luciferase assay according to Mercury Profiling kit and associated protocols. Luciferase assays were performed in independent triplicates, and results for each peptide subjected to statistical analysis (SPSS software package) to determine if they were different to Jun (positive control for AP-1 activation) or pcDNA-3 (negative control for AP-I activation).

SIRC cells = test: UV B induced cell death, FACS for propidium iodide and Annexin V; format: cell-based; details: 10 minutes UV B, media containing 10 micromolar peptide, FIG. 18c
Description: Cells were exposed to UV B radiation and the level of cell death determined. Briefly, corneal keratinocytes in culture were exposed to IOmins UV irradiation. Post-exposure, media was replaced with either normal media or media containing 10 micromolar peptide. Subsequently, cells were prepared for FACS analysis. FACS analysis was used to detect propidium iodide and the level of Annexin V in a cell to determine the number of cells undergoing necrosis, early apoptosis or late apoptosis.

Primary rat neurons = test: Glutamate induced cell death of primary neurons, in vitro ischemia model (MTS assay); format: cell-based; details: for rescue of primary neurons from glutamate induced cell death / number of cells surviving glutamate compared with TI-JIP: 250 μM glutamate; for rescue of primary neurons from glutamate induced cell death: live cells assayed 24 hours later, FIG. 19, 20; for number of cells surviving glutamate compared with TI-JIP: versus known c-Jun dimerization inhibitory peptide TI-JIP, FIG. 19
Description: Primary neuronal cells were isolated and cultured in the presence of glutamate (250 μM) for […] to induce cell death as a model of ischemia induced cell death.
Primary rat neurons were isolated from embryos (standard protocols), plated in cell culture dishes and maintained for 11 days in culture before experiment. Peptide was added 15 minutes to media before glutamate addition. Glutamate was added to final concentrations of 250 micromolar, for 5 mins at 37 degrees. Glutamate media removed, fresh media added. Assays for live cells done 24 hours later. Live cells were assayed using MTS assay.

D35: retro-inverted analogue of SEQ ID NO: 132 with C-terminal TAT domain after a single L-glycine; SEQ ID NO: 181 ([dR][dE][dR][dR][dS][dS][dS][dQ][dI]GG[dS][dR][dI][dS][dQ][dY][dA]GRRRQRRKKRG; also: C-terminal TAT domain: chirality not given here) [Peptide D35]
protection of neurons from glutamate induced cell death [1]: protects a considerable proportion of neurons from glutamate induced cell death
protection offered by the D form relative to the L form of the peptide [1]: superior
rescue of cells from cell death caused by acute ischemia [2]: a considerable proportion of cells from cell death

D36: retro-inverted analogue of SEQ ID NO: 136 with C-terminal TAT domain after a single L-glycine; SEQ ID NO: 182 ([dP][dK][dI][dS][dQ][dY]G[dQ][dR][dR][dR]G[dQ][dL]GGRRRQRRKKRG; also: C-terminal TAT domain: chirality not given here) [Peptide D36]
protection of neurons from glutamate induced cell death [1]: protects a considerable proportion of neurons from glutamate induced cell death
protection offered by the D form relative to the L form of the peptide [1]: equivalent
rescue of cells from cell death caused by acute ischemia [2]: a considerable proportion of cells from cell death

SP20: c-Jun dimerization inhibitory peptide; amino acid SEQ ID NO: 94 with flanking vector sequence, 96 without (IYSSILWGTKWCVLLVITP)
binding of c-Jun in co-immunoprecipitation (c-Jun): capable of binding c-Jun to a level detectable in a co-immunoprecipitation

SP34: c-Jun dimerization inhibitory peptide; amino acid SEQ ID NO: 126 with flanking vector sequence, 128 without (AYQSINSSPVLPENSQELSLHLKQHVTKS)
expression of a reporter gene under control of an AP-I regulatory region (AP-I luciferase reporter): significantly reducing expression of a reporter gene

SP36: c-Jun dimerization inhibitory peptide; amino acid SEQ ID NO: 134 with flanking vector sequence, 136 without (GLQGRRRQGYQSIKP)
expression of a reporter gene under control of an AP-I regulatory region (AP-I luciferase reporter): significantly reducing expression of a reporter gene
number of cells undergoing apoptosis after UV B exposure (SIRC cells): capable of reducing the number of cells undergoing apoptosis
rescue of primary neurons from glutamate induced cell death (Primary rat neurons): capable of rescuing a significant proportion of cells from cell death; also recorded: capable of rescuing almost all cells from cell death; also recorded: dose dependent manner
number of cells surviving glutamate compared with TI-JIP (Primary rat neurons): considerably greater
cells rescued from glutamate induced cell death (Primary rat neurons; about 5 μM of peptide, FIG. 20): about 100%
protection of neurons from glutamate induced cell death [1]: protects a considerable proportion of neurons from glutamate induced cell death

SP71: c-Jun dimerization inhibitory peptide; amino acid SEQ ID NO: 158 with flanking vector sequence, 160 without (PFFWRLNKIFYFIDSRVAAAILN)
expression of a reporter gene under control of an AP-I regulatory region (AP-I luciferase reporter): significantly reducing expression of a reporter gene
rescue of primary neurons from glutamate induced cell death (Primary rat neurons): capable of rescuing a significant proportion of cells from cell death
number of cells surviving glutamate compared with TI-JIP (Primary rat neurons): considerably greater
